From US7030119B1, “Method for treating chronic pain using MEK inhibitors” (Warner-Lambert Company, priority 1999, dated 2006)
“Also recorded” adds a separate entry of the source. Structures can show the parent of a compound that is named as a salt. Where two headings read alike, the source gives them in different places.

Experiments:
MEK = assay: binding affinity of MEK inhibitors; conditions: affinity of the MEK inhibitors of Biological Example 3
[1] = system: CCI-induced static allodynia; assay: chronic constriction injury (CCI)-induced static allodynia (von Frey hairs) in rats; format: in vivo, rat
Procedure: (§1) Male Sprague Dawley rats (250–300 g), obtained from Charles River, Margate, U.K.) were housed in groups of 3–6. All animals were kept under a 12 h light/dark cycle (lights on at 07 h 00 min) with food and water ad libitum. All experiments were carried out by an observer blind to drug treatments.
Animals were anaesthetised with 2% isoflurane 1:4 O2/N2O mixture maintained during surgery via a nose cone. The sciatic nerve was ligated as previously described by Bennett and Xie, 1988. Animals were placed on a homeothermic blanket for the duration of the procedure. After surgical preparation the common sciatic nerve was exposed at the middle of the thigh by blunt dissection through biceps femoris. Proximal to the sciatic trifurcation, about 7 mm of nerve was freed of adhering tissue and 4 ligatures (4-0 silk) were tied loosely around it with about 1 mm spacing. The incision was closed in layers and the wound treated with topical antibiotics.
(§2) PD 198306 and pregabalin were administered intrathecally in a volume of 10 μl using a 100 μl Hamilton syringe by exposing the spine of the rats under brief isoflurane anaesthesia. Injections were made into the intrathecal space between lumbar region 5–6 with a 10 mm long 27 gauge needle. Penetrations were judged successful if there was a tail flick response. The wound was sealed with an autoclip and rats appeared fully awake within 2–3 min following injection.
(§3) Mechanical hypersensitivity was measured using Semmes-Weinstein von Frey hairs (Stoelting, Ill., U.S.A.). Animals were placed into wire mesh bottom cages allowing access to the underside of their paws. Animals were habituated to this environment prior to the start of the experiment. Mechanical hypersensitivity was tested by touching the plantar surface of the animals right hind paw with von Frey hairs in ascending order of force (0.7, 1.2, 1.5, 2, 3.6, 5.5, 8.5, 11.8, 15.1 and 29 g) for up to 6 sec. Once a withdrawal response was established, the paw was re-tested, starting with the next descending von Frey hair until no response occurred. The highest force of 29 g lifted the paw as well as eliciting a response, thus represented the cut off point. The lowest amount of force required to elicit a response was recorded as the paw withdrawal threshold (PWT) in grams.
(§4) Static allodynia was assessed with von Frey hairs, before (baseline, BL) and 0.5 h, 1 h and 2 h after intrathecal or intraplantar administration of PD 198306 (1–30 μg, i.t.), vehicle (cremophor:ethanol:water, 1:1:8) or pregabalin (10 μg, i.t.). For oral administration experiments, static allodynia was assessed with von Frey hairs, before (baseline, BL) and 1 h after oral administration of PD 198306 (3–30 mg/kg, p.o.), vehicle (cremophor:ethanol:water, 1:1:8) or pregabalin (30 mg/kg, p.o.). Animals were administered again the same compounds on the following day, both in the morning and the afternoon. Static allodynia was assessed before and 1 h after the morning administration. In the afternoon static allodynia was assessed before, 1 h, 2 h and 3 h after administration for streptozocin treated animals. CCI animals were assessed before, 1 h and 2 h after administration
PD 198306 and pregabalin were synthesised at Parke-Davis (Ann Arbor, Mich., USA). PD 198306 was suspended in cremophor:ethanol:water (1:1:8) vehicle. Pregabalin was dissolved in water. Both compounds were administered orally, intrathecally or intraplantar in volumes of 1 ml/kg, 10 μl and 100 μl respectively. Streptozocin (Aldrich, UK) was dissolved in 0.9% w/v NaCl and administered intraperitoneally in a volume of 1 ml/kg.
Data were analysed using a Kruskall-Wallis ANOVA for non-parametric results, followed when significant by Mann-Whitney's t test vs vehicle group.
The animals and methods for developing chronic constriction injury in the rat, injecting test compounds, and evaluation of static allodynia were according to Example 2 above. […]

colon 26 cells = colon 26 cells IC50; format: cell-based; conditions: Mus musculus
[2] = system: streptozocin-induced static allodynia; assay: streptozocin-induced static allodynia (von Frey hairs) in diabetic rats; format: in vivo, rat
Procedure: Male Sprague Dawley rats (250–300 g), obtained from Bantin and Kingman, (Hull, U.K.) were housed in groups of 3. All animals were kept under a 12 h light/dark cycle (lights on at 07 h 00 min) with food and water ad libitum. All experiments were carried out by an observer blind to drug treatments.
Diabetes was induced in rats by a single i.p. injection of streptozocin (50 mg/kg) as described previously (Courteix et al., 1993).
as §3
PD 198306 [N-Cyclopropylmethoxy-3,4,5-trifluoro-2-(4-iodo-2-methyl-phenylamino)-benzamide] and Cl-1008 (pregabalin) were synthesized at Parke-Davis (Ann Arbor, Mich., USA). PD 198306 was suspended in cremophor:ethanol:water (1:1:8) vehicle. Pregabalin was dissolved in water. Both compounds were administered orally. Streptozocin (Aldrich, UK) was dissolved in 0.9% w/v NaCl and administered intraperitoneally. Drug administrations were made in a volume of 1 ml/kg.
The static allodynia data were analysed using a Kruskall-Wallis ANOVA for non-parametric results, followed when significant by Mann-Whitney's t test.
Static allodynia was assessed with von Frey hairs, before (baseline, BL) and 1 h after oral administration of PD 198306 (30 mg/kg, p.o.), vehicle (cremophor:ethanol:water, 1:1:8) or pregabalin (30 mg/kg, p.o.) (test). Animals were administered again the same compounds on the following day, both in the morning and the afternoon. Static allodynia was assessed only before and 1 h after the afternoon administration, in order to minimise the habituation of the animals to the testing conditions. Animals treated with pregabalin received water in the morning administration, in order to avoid the potential development of tolerance to the compound with repeated administration.
as §1, §2
as §4, with “Static allodynia was assessed before and 1 h after the morning administration. In the afternoon static allodynia was assessed before, 1 h, 2 h and 3 h after administration for streptozocin treated animals. CCI animals were assessed before, 1 h and 2 h after administration” left out

[3] = system: CCI-induced static allodynia; assay: chronic constriction injury (CCI)-induced static allodynia (von Frey hairs) in rats; format: in vivo, rat; conditions: Biological Example 3; intrathecal administration 30 μg
[4] = Biological Example 3, intrathecal administration 30 μg
[5] = Biological Example 1, single administration 30 mg/kg p.o., 1 h after administration
[6] = Biological Example 2, single administration p.o. (pregabalin 30 mg/kg, PD 198306 3–30 mg/kg), 1 h after administration
[7] = intraplantar administration 3 mg/100 μl
[8] = intrathecal administration 1–30 μg

SMILES: Cc1cc(I)ccc1Nc1c(C(=O)NOCC2CC2)cc2nc[nH]c2c1F (as salt: salt) [PD 254552, 7-fluoro-6-(4-iodo-2-methyl-phenylamino)-1H-benzoimidazole-5-carboxylic acid cyclopropylmethoxy-amide]
- melting point: 168 to 172 °C

SMILES: Cc1cc(I)ccc1Nc1c(C(=O)NOCC2CC2)cc2nc[nH]c2c1F [PD 254552, 7-fluoro-6-(4-iodo-2-methyl-phenylamino)-1H-benzoimidazole-5-carboxylic acid cyclopropylmethoxy-amide]
- affinity (MEK): 5 nM
- effect on static allodynia, CCI model [1, 4]: blocked the maintenance of static allodynia
- time for which the antiallodynic effect was evident post-injection, CCI model [1, 4]: 30 min
- IC50 (colon 26 cells; read-out: colon 26 cells, 1 hour pretreatment, IC50): 20 nM

SMILES: CC(C)C[C@H](CN)CC(=O)O [pregabalin]
- effect on streptozocin-induced static allodynia [2, 5]: significantly blocked
- effect on streptozocin-induced static allodynia [2, 6]: significantly blocked
- effect on CCI-induced static allodynia ([1]; single administration 30 mg/kg p.o., 1 h after administration): significantly blocked

SMILES: Cc1cc(I)ccc1Nc1c(C(=O)O)cc2nc[nH]c2c1F [PD 205293, 7-fluoro-6-(4-iodo-2-methyl-phenylamino)-1H-benzoimidazole-5-carboxylic acid]
- melting point: 247 to 248 °C (dec.)
- IC50 (colon 26 cells; read-out: colon 26 cells, IC50): > 10000 nM

SMILES: Cc1cc(I)ccc1Nc1c(C(=O)NOCC2CC2)cc(F)c(F)c1F [PD 198306, N-Cyclopropylmethoxy-3,4,5-trifluoro-2-(4-iodo-2-methyl-phenylamino)-benzamide]
- effect on streptozocin-induced static allodynia ([2]; Biological Example 1, 30 mg/kg p.o., 1 h after the third administration (twice more on the following day)): significantly blocked
- persistence of the effect on streptozocin-induced static allodynia ([2]; Biological Example 1, 30 mg/kg p.o., day after the third administration): disappeared by the following day
- effect on streptozocin-induced static allodynia [2, 5]: had no effect
- effect on streptozocin-induced static allodynia ([2]; Biological Example 2, PD 198306 30 mg/kg p.o., after the third administration (3 doses over two days), 30 mg/kg): significantly blocked; also recorded: transient effect
- effect on streptozocin-induced static allodynia [2, 6]: had no effect
- effect on static allodynia, streptozocin model [2, 7]: had no effect
- minimum effective dose (MED), static allodynia, streptozocin model ([2]; intrathecal administration): 3 µg
- effect on static allodynia, streptozocin model ([2]; intrathecal administration 30 μg): significantly blocked; also recorded: totally blocked
- effect on static allodynia, streptozocin model [2, 8]: dose-dependently blocked
- effect on static allodynia, CCI model ([1]; Biological Example 2, intrathecal administration 30 μg): significantly blocked; also recorded: totally blocked
- effect on static allodynia, CCI model [1, 7]: had no effect
- minimum effective dose (MED), static allodynia, CCI model ([1]; intrathecal administration): 10 µg
- effect on static allodynia, CCI model [1, 8]: dose-dependently blocked
- effect on CCI-induced static allodynia ([1]; single or multiple administration 3–30 mg/kg p.o.): neither a single or multiple administration of PD 198306 (3–30 mg/kg, p.o) had any effect; also recorded: had no effect

SMILES: O=C(NOCC1CC1)c1ccc(F)c(F)c1Nc1ccc(I)cc1Cl [PD 184352]
- affinity (MEK): 2 nM
- magnitude of the antiallodynic effect compared with 100 μg of pregabalin, CCI model [3]: similar
- effect on static allodynia, CCI model [1, 4]: blocked the maintenance of static allodynia
- time for which the antiallodynic effect was evident post-injection, CCI model [1, 4]: 30 min
